Common to all, as to type: functional
Experiment [1] is described as follows: Murine tumor cell selectivity as zone unit differential between ([…]) murine cell line and (CFU) normal bone marrow in disk diffusion soft agar colony formation assay at 75 ug/disk. For orientation: In agar diffusion tests the substance spreads into inoculated agar from a disc or well.
Experiment [2] can be described thus: Murine tumor cell selectivity as zone unit differential between (C38) colon adenocarcinoma and ([…]) murine cell line in disk diffusion soft agar colony formation assay at 75 ug/disk.
A short description of experiment [3]: Murine tumor cell selectivity was measured as zone unit differential between (C38) colon adenocarcinoma and (CFU) normal bone marrow in disk diffusion soft agar colony formation assay at a concentration of 75 ug/disk.
Experiment [4] is described as follows: Human tumor selectivity was measured as zone unit differential between (H125) lung small cell carcinoma and (CEM) lymphocytic leukemia in disk diffusion soft agar colony formation assay at a concentration of 75 ug/disk.

This note sets out measurements from ChEMBL document CHEMBL1147463, “Synthesis and anticancer activity of side chain analogs of the crambescidin alkaloids” (2004).

On to `CC[C@H]1C=CCC[C@@]2(C[C@@H]3CC[C@@H]4[C@H](C(=O)OCCCCCC(=O)[O-])[C@]5(CCC[C@@H](C)O5)NC(=[N+]34)N2)O1.Cl` [GUANIDINO ACID], for which the Selectivity was 200 in experiment [1], -200 in experiment [2], 0 in experiment [3] and 150 in experiment [4].
For `CC[C@H]1C=CCC[C@@]2(C[C@@H]3CC[C@@H]4[C@H](C(=O)OCCCCCCCCCC(=O)O)[C@]5(CCC[C@@H](C)O5)NC(=[N+]34)N2)O1.[Cl-]` [GUANIDINO ACID], in that order: -200, 300, 100 and 50.
For `CC[C@H]1C=CCC[C@@]2(C[C@@H]3CC[C@@H]4[C@H](C(=O)OCCCCCCCCCCCCCCCC(=O)N(CCCN)C[C@@H](O)CCN)[C@]5(CCC[C@@H](C)O5)NC(=N2)N34)O1.Cl.Cl.Cl` [CRAMBESCIDIN 800 TRIHYDROCHLORIDE], in that order: 150, -200, -50 and 50.
For `CC[C@H]1C=CCC[C@@]2(C[C@@H]3CC[C@@H]4[C@H](C(=O)OCCCCCCCCCCCCCCCCCC(=O)O)[C@]5(CCC[C@@H](C)O5)NC(=[N+]34)N2)O1.[Cl-]` [GUANIDINO ACID], in that order: 0, 100, 100 and 150.
In the case of `CC[C@H]1C=CCC[C@@]2(C[C@@H]3CC[C@@H]4[C@H](C(=O)OCCCCCCCCCCCC(=O)O)[C@]5(CCC[C@@H](C)O5)NC(=[N+]34)N2)O1.[Cl-]` [GUANIDINO ACID], the Selectivity in experiment [1] is listed as 50; in experiment [2], 200; in experiment [3] it was 250; in experiment [4], 200.
With `CC[C@H]1C=CCC[C@@]2(C[C@@H]3CC[C@@H]4[C@H](C(=O)OCCCCCCCCCCCCCCC(=O)N(CCCN)C[C@@H](O)CCN)[C@]5(CCC[C@@H](C)O5)NC(=[N+]34)N2)O1.Cl.Cl.[Cl-]`, the Selectivity stood at 100 in experiment [1], 50 in experiment [2], 150 in experiment [3] and 400 in experiment [4].
For `CC[C@H]1C=CCC[C@@]2(C[C@@H]3CC[C@@H]4[C@H](C(=O)OCCCCCCCCCC(=O)N(CCCN)C[C@@H](O)CCN)[C@]5(CCC[C@@H](C)O5)NC(=[N+]34)N2)O1.Cl.Cl.[Cl-]`, in that order: 300, 0, 100 and -50.
For `CC[C@H]1C=CCC[C@@]2(C[C@@H]3CC[C@@H]4[C@H](C(=O)OCCCCCC(=O)N(CCCN)C[C@@H](O)CCN)[C@]5(CCC[C@@H](C)O5)NC(=[N+]34)N2)O1.Cl.Cl.[Cl-]`, in that order: 300, -300, 0 and -50.
In the case of `CC[C@H]1C=CCC[C@@]2(C[C@@H]3CC[C@@H]4[C@H](C(=O)OCCCCCCCC(=O)O)[C@]5(CCC[C@@H](C)O5)NC(=[N+]34)N2)O1.[Cl-]` [GUANIDINO ACID], the Selectivity is on record as 100 in experiment [1], 100 in experiment [2], 200 in experiment [3] and -50 in experiment [4].
Take `CC[C@H]1C=CCC[C@@]2(C[C@@H]3CC[C@@H]4[C@H](C(=O)OCCCCCCCCCCCCCCCCCC(=O)N(CCCN)C[C@@H](O)CCN)[C@]5(CCC[C@@H](C)O5)NC(=[N+]34)N2)O1.Cl.Cl.[Cl-]`: the Selectivity in experiment [1] amounted to 100; in experiment [2] it was 50; in experiment [3], 150; in experiment [4], 150.
For the compound `CC[C@H]1C=CCC[C@@]2(C[C@@H]3CC[C@@H]4[C@H](C(=O)OCCCCCCCCCCCCCCCC(=O)O)[C@]5(CCC[C@@H](C)O5)NC(=[N+]34)N2)O1.[Cl-]` [CRAMBESCIDIN 657], the Selectivity in experiment [1] is listed as 50; in experiment [2], 150; in experiment [3], 200; in experiment [4] it was 100.
In the case of `CC[C@H]1C=CCC[C@@]2(C[C@@H]3CC[C@H]4[C@H](C(=O)OCCCCCCCCCCCCCCCC(=O)N(CCCN)C[C@@H](O)CCN)[C@@]5(CCC[C@@H](C)O5)NC(=[N+]34)N2)O1.Cl.Cl.[Cl-]`, the Selectivity in experiment [1] was determined as 50; in experiment [2] it was 0; in experiment [3] it was 50; in experiment [4] it was 50.
Regarding `CC[C@H]1C=CCC[C@@]2(C[C@@H]3CC[C@H]4[C@@H](C(=O)OCCCCCCCCCCCCCCCC(=O)N(CCCN)C[C@@H](O)CCN)[C@@]5(CCC[C@@H](C)O5)NC(=[N+]34)N2)O1.Cl.Cl.[Cl-]`, the Selectivity in experiment [1] is listed as 50; in experiment [2], -50; in experiment [3], 0; in experiment [4], 100.
With `CC[C@H]1C=CCC[C@@]2(C[C@@H]3CC[C@@H]4[C@H](C(=O)OCCCCCCCC(=O)N(CCCN)C[C@@H](O)CCN)[C@]5(CCC[C@@H](C)O5)NC(=[N+]34)N2)O1.Cl.Cl.[Cl-]`, the Selectivity is 300 in experiment [1], -200 in experiment [2], 100 in experiment [3] and -50 in experiment [4].
For `CC[C@H]1C=CCC[C@@]2(C[C@@H]3CC[C@@H]4[C@H](C(=O)OCCCCCCCCCCCCCCC(=O)[O-])[C@]5(CCC[C@@H](C)O5)NC(=[N+]34)N2)O1.Cl` [GUANIDINO ACID], in that order: -100, 200, 100 and 100.
In the same order, the values of `CC[C@H]1C=CCC[C@@]2(C[C@@H]3CC[C@@H]4[C@H](C(=O)OCCCCCCCCCCCC(=O)N(CCCN)C[C@@H](O)CCN)[C@]5(CCC[C@@H](C)O5)NC(=[N+]34)N2)O1.Cl.Cl.[Cl-]` are 50, 50, 100 and 100.
Consider `CC[C@H]1C=CCC[C@@]2(C[C@@H]3CC[C@@H]4[C@@H](C(=O)[O-])[C@]5(CCC[C@@H](C)O5)NC(=[N+]34)N2)O1.Cl`, for which the Selectivity in experiment [1] is 300; in experiment [2] it was -100; in experiment [3], 200; in experiment [4], 50.
For `CC[C@H]1C=CCC[C@@]2(C[C@@H]3CC[C@H]4[C@@H](C(=O)OCCCCCCCCCCCCCCCC(=O)O)[C@@]5(CCC[C@@H](C)O5)NC(=[N+]34)N2)O1.[Cl-]`, the Selectivity in experiment [1] is -50; in experiment [2], 100; in experiment [3] it was 50; in experiment [4], 150.
